Measurements published in publication PMC9867837 (Cancer letters, 2022).

Assays:
[1] = Mouse liver microsome stability; format: in vitro ADME; conditions: liver microsomes, read-out: Metabolic Stability MLM t1/2
Experimental: Solubility, human (HLM) and mouse liver microsomal (MLM), and plasma stability studies were performed by Eurofins Cerep Panlabs and Eurofin Discovery Services (www.eurofins.com/PharmaDiscovery), while protein binding studies were performed by Sanford Burnham Prebys Chemical Biology & Drug Discovery Core using standard protocols.

[2] = biological target: T1, CYP2D6 (Homo sapiens, UniProt P10635); experiment: CYP inhibition, CYP2D6; format: in vitro ADME; conditions: read-out: CYP Inhibition CYP2D6 % Inh at 10 μM
T1 construct: Eurofins-CEREP (contract research organisation that ran the assay)
Experimental: The in vivo activity of a compound is influenced by its overall bioavailability, which is also driven by parameters, such as solubility, permeability, and metabolism. […] These values are all above the industry cut-off of 60 μg/ml. […] It has CLint in human hepatocytes of 16 μL/min/10^6 cells, which falls into moderate stability range [43].

[3] = biological target: T2, pYStat3C468A (Homo sapiens, UniProt P40763, C468A); experiment: EMSA with purified mutant pYStat3C468A; format: biochemical
T2 construct: made in house; host or cells: E. coli BL21(DE3) TKB1 (inducible tyrosine kinase)
Description: This construct was used to generate the mutants, Stat3C328A, Stat3C426A, Stat3C468A, and Stat3C542S, as described in detail in Supplementary Information “Methods”.
The expression of un-phosphorylated and tyrosine phosphorylated His-tagged recombinant wtStat3 and mutant Stat3 proteins in BL21 (DE3) bacterial cells is described in detail in Supplementary Information “Methods”.
Given the MS data, we conducted site-directed mutagenesis analysis for the effects of Cys mutations (Cys-to-Ala or Cys-to-Ser mutations) on the inhibitory activities or potencies of the compounds. […] Purified, phosphorylated wild-type (wt)Stat3, and phosphorylated mutants, Stat3C328A, Stat3C426A, Stat3C468A, and Stat3C542S protein samples of equal amounts were pre-incubated with or without 3 μM H182 for 30 min at room temperature prior to incubation with the radiolabeled hSIE probe that binds Stat3 and subjecting to EMSA analysis. […] Focusing on the C426 and C468, we next conducted dose-response studies for effects of H182 on Stat3C426A and Stat3C468A. […] Equal proteins used in the DNA-binding assay/EMSA analysis are shown by SDS-PAGE Coomassie staining (Fig. 3B, lower). […]
In another case, the nuclear extract was pre-incubated with the radiolabeled probe for 30 min at 30 °C prior to incubation with increasing concentration of H182 at room temperature for 30 min and subjecting to EMSA analysis. Bands corresponding to Stats DNA- binding activities were scanned and quantified using ImageJ and plotted as a percentage of control (vehicle) against the concentration of the inhibitor, from which the IC50 values were derived . […]
These studies were performed as previously reported using the v-Src -transformed NIH3T3/v-Src fibroblasts [1 -5] . […] Luciferase activity was normalized to total protein concentration of cell lysate, which was determined by Bradford assay (Bio-Rad, Hercules, CA) . […]

T2 sequence (P40763 127-711 C468A): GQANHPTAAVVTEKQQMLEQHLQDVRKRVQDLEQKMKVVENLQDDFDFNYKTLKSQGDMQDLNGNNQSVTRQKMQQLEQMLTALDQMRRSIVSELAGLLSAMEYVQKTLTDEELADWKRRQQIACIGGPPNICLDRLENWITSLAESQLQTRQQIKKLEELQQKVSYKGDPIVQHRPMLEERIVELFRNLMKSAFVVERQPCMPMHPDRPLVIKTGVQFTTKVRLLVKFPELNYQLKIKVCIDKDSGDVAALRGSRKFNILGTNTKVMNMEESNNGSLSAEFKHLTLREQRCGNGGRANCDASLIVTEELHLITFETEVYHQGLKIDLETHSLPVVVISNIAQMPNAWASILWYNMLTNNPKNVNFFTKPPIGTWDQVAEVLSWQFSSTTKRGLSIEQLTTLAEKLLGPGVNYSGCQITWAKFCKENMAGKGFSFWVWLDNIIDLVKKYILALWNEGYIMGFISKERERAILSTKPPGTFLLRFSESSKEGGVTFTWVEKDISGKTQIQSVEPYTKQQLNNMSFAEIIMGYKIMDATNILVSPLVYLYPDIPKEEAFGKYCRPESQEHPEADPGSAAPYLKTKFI
T1 sequence (P10635 whole entry, species assumed): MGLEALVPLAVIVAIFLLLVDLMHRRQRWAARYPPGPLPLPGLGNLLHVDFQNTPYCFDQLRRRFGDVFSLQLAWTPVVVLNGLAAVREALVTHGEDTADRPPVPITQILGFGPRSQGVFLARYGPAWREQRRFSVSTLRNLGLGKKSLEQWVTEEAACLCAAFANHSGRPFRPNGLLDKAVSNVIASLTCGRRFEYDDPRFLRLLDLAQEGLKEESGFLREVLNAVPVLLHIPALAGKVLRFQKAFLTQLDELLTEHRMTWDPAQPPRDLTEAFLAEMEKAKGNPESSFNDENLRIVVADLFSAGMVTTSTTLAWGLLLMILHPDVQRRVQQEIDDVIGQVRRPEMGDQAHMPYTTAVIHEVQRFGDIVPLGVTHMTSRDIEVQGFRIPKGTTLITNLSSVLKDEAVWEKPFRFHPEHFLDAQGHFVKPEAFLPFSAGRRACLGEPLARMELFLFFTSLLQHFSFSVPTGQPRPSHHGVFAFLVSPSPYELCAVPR

O=C([C@H]1CCN1S(=O)(=O)c1c(F)c(F)c(F)c(F)c1F)N(Cc1ccc(C2CCCCC2)cn1)c1ccc2c(=O)[nH]ncc2c1 [Compound H182]
half-life [1]: > 2.5 h | inhibition at 10 µM [2]: 9% | Effect on DNA-binding activity of pYStat3C468A ([3]; 3 μM H182, 30 min): unaffected | Effect on pYStat3C468A activity ([3]; 10 μM H182): no effect | IC50 ([3]; EMSA, 0–50 μM H182, 30 min): 40 µM
